Source: patent US8609688B2, “Substituted imidazopyridinyl-aminopyridine compounds” (ArQule, Inc., priority 2011, dated 2013)

What was measured:
Phospho-Akt (S473) = test: Cell ELISA Assay, Phospho-Akt detection; type: cell-based; conditions: cells treated for 1 hour, cell line not stated
Protocol: Phospho-Akt detection analysis. Phospho-Akt (S473) was detected using cell ELISA. Briefly, cells were plated in a 96-well plate at 7,000-10,000 cells per well, cultured for 2-3 days in complete growth medium, and then treated with various drugs or combinations of drugs for 1 hour. The cells were fixed with ice-cold methanol, and washed with TBS supplemented with 1% H2O2. Phospho-Akt (S473) was probed with corresponding rabbit antibody as a primary antibody, and horseradish peroxidase conjugated goat anti-rabbit IgG. After treatment with SuperSignal® ELISA for 15 minutes, the detection was performed using a luminometer. Data were normalized to untreated controls and analyzed with Microsoft Excel.

[1] = molecular target: T1, Full-length inactive AKT1 (Homo sapiens (Human), UniProt P31749); test: Thermal Shift Assay (protein-ligand binding); conditions: Kd at 25° C. calculated using constant ligand binding enthalpy −15 kcal/mol; 15 μM compound, ANS dye
Protocol: Binding analysis. Protein-ligand binding was identified with the thermal shift assay which is based on the ligand-induced stabilization of the protein tertiary structure. The thermal stability of the ligand-Akt1 complex was assessed by subjecting the complex to a set temperature gradient and by comparison of the meltion temperature of the Akt1-ligand complex with the melting temperature of the protein alone. Protein unfolding was monitored by the fluorescence readout of an environmentally sensitive fluorescent dye, 1-anilinonaphthalene-8-sulfonic acid (ANS). […] The PCR plate was placed into a RT-PCR instrument and a temperature gradient was performed, increasing from 27 to 80° C., at 1° C./30 sec heat rate with a dwell time of 20 sec. The change in ANS fluorescence was measured using the filter set of 475 nm/525 nm excitation/emission.

cells = test: Cell proliferation / viability GI50 (MTS assay or ATP quantitation assay); type: cell-based; conditions: 72 hours treatment; cell line and assay (MTS or ATP quantitation) not stated
Protocol: Cell proliferation analysis. Cell survival was determined by the MTS assay. Briefly, cells were plated in a 96-well plate at 2,000-10,000 cells per well, cultured for 24 hours in complete growth medium, and then treated with various drugs and drug combinations for 72 hours. MTS was added and incubated for 4 hour, followed by assessment of cell viability using the microplate reader at 570 nm. Data were normalized to untreated controls and analyzed with Microsoft Excel.
Cell viability analysis. Cell viability was determined by the ATP quantitation assay. Briefly, cells were plated in a 96-well plate at 2,000-10,000 cells per well, cultured for 24 hours in complete growth medium, and then treated with various drugs or combination of drugs for 72 hours. CellTiter-Glo® reagent was added and incubated at room temperature for 10 minutes, followed by assessment of cell viability using a luminometer. Data were normalized to untreated controls and analyzed with Microsoft Excel.

[2] = molecular target: T1, Full-length inactive AKT1; test: Inactive Akt Alpha Screen Assay; conditions: 8 nM inactive Akt1 activated by PDK1 and MAPKAPK2, lipid vesicles, 50 μM ATP, biotinylated crosstide; read-out: Akt1 biochemical assay IC50 AlphaScreen crosstide
Protocol: AKT1 activity was assayed using the GSK3-derived biotinylated peptide substrate, crosstide (biotin-[…]), and AlphaScreen™ (Amplified Luminescent Proximity Homogeneous Assay) technology. AKT1 activation was achieved by the addition of the activating kinases PDK1 and MAPKAPK2, lipid vesicles, and ATP. The extent of peptide phosphorylation was determined using a phospho-AKT substrate antibody and acceptor beads conjugated to Protein A and donor beads conjugated to streptavidin that bind to the biotin on the peptide. Excitation of the donor beads converted ambient oxygen to excited singlet oxygen which, when in close proximity to acceptor beads, reacted with acceptor beads resulting in signal amplification.
After a 20 minute pre-incubation at room temperature, the kinase reaction was initiated by the addition of 5 μL of an activation mixture diluted in assay buffer containing biotinylated crosstide, PDK1, MAPKAPK2, DOPS/DOPC, PtdIns(3,4,5)P3, and ATP for final concentrations of 60 nM biotinylated crosstide, 0.1 nM PDK1, 0.7 nM MK2, 5.5 μM DOPS, 5.5 μM DOPC, 0.5 μM PtdIns(3,4,5)P3, and 50 μM ATP. The plates were incubated for 30 minutes at room temperature, and then stopped in the dark by the addition of 10 μL stop/detection mixture prepared in assay buffer containing EDTA, AlphaScreen™ Streptavidin Donor and Protein A Acceptor beads, and phospho-AKT substrate antibody for final concentrations of 10 mM EDTA, 500 ng/well of both AlphaScreen™ Streptavidin Donor beads and Protein A Acceptor beads, and phospho-AKT substrate antibody at a final dilution of 1:350. Assay plates were incubated for 90 minutes at room temperature in the dark, and the plates were read on a Perkin Elmer Envision Multilabel plate reader (excitation wavelength: 640 nm, emission wavelength: 570 nm). […]

T1 sequence (P31749 whole entry): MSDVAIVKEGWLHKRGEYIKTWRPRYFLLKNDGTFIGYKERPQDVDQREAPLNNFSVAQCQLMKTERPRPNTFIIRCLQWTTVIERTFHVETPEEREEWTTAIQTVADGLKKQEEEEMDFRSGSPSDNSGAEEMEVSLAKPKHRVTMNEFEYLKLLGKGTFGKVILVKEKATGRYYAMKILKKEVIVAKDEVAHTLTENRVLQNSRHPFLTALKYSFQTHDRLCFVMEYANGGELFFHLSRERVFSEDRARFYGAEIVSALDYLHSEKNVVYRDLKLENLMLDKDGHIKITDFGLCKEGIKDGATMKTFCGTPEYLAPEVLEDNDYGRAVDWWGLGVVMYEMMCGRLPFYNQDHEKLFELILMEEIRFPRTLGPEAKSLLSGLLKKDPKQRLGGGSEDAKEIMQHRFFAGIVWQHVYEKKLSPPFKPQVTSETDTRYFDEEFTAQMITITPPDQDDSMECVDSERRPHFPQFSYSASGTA

Row | IC50 (Phospho-Akt (S473)) [nM] | Kd [1] [nM] | IC50 [2] [nM] | SMILES | GI50 (cells) [µM]
1 | 605 | 110 | – | Nc1ncccc1-c1nc2ccc(Sc3ccccc3)nc2n1-c1ccc(C2(N)CCC2)cc1 [Cmpd 21, 3-(3-(4-(1-aminocyclobutyl)phenyl)-5-(phenylthio)-3H-imidazo[4,5-b]pyridin-2-yl)pyridin-2-amine] | –
2 | 17 | 0.4 | 1.7 | CC(C)(C)C(=O)Nc1cccc(-c2ccc3nc(-c4cccnc4N)n(-c4ccc(C5(N)CCC5)cc4)c3n2)c1 [Cmpd 4, N-(3-(3-(4-(1-aminocyclobutyl)phenyl)-2-(2-aminopyridin-3-yl)-3H-imidazo[4,5-b]pyridin-5-yl)phenyl)pivalamide] | 265
3 | – | 0.8 | 1.79 | Nc1ncccc1-c1nc2ccc(-c3cccc(N4CCS(=O)(=O)CC4)c3)nc2n1-c1ccc(C2(N)CCC2)cc1 [Cmpd 18, 4-(3-(3-(4-(1-aminocyclobutyl)phenyl)-2-(2-aminopyridin-3-yl)-3H-imidazo[4,5-b]pyridin-5-yl)phenyl)thiomorpholine 1,1-dioxide] | –
4 | 9 | 1.4 | 2.15 | CCC(=O)N1CCN(c2cccc(-c3ccc4nc(-c5cccnc5N)n(-c5ccc(C6(N)CCC6)cc5)c4n3)c2)CC1 [Cmpd 13, 1-(4-(3-(3-(4-(1-aminocyclobutyl)phenyl)-2-(2-aminopyridin-3-yl)-3H-imidazo[4,5-b]pyridin-5-yl)phenyl)piperazin-1-yl)propan-1-one] | 335
5 | 414 | 57.3 | 8.72 | Nc1ncccc1-c1nc2ccc(Nc3ccc(N4CCOCC4)cc3)nc2n1-c1ccc(C2(N)CCC2)cc1 [Cmpd 20, 3-(4-(1-aminocyclobutyl)phenyl)-2-(2-aminopyridin-3-yl)-N-(4-morpholinophenyl)-3H-imidazo[4,5-b]pyridin-5-amine] | –
6 | 2.1 | 0.2 | 2.51 | CN(C)C(=O)C1CCN(c2cccc(-c3ccc4nc(-c5cccnc5N)n(-c5ccc(C6(N)CCC6)cc5)c4n3)c2)CC1 [Cmpd 9, 1-(3-(3-(4-(1-aminocyclobutyl)phenyl)-2-(2-aminopyridin-3-yl)-3H-imidazo[4,5-b]pyridin-5-yl)phenyl)-N,N-dimethylpiperidine-4-carboxamide] | –
7 | 60 | – | 3.77 | Nc1ncccc1-c1nc2ccc(Nc3ccccc3)nc2n1-c1ccc(C2(N)CCC2)cc1 [Cmpd 19, 3-(4-(1-aminocyclobutyl)phenyl)-2-(2-aminopyridin-3-yl)-N-phenyl-3H-imidazo[4,5-b]pyridin-5-amine] | 1420
8 | – | 1.4 | 1.63 | CC(C)(O)C(=O)Nc1cccc(-c2ccc3nc(-c4cccnc4N)n(-c4ccc(C5(N)CCC5)cc4)c3n2)c1 [Cmpd 6, N-(3-(3-(4-(1-aminocyclobutyl)phenyl)-2-(2-aminopyridin-3-yl)-3H-imidazo[4,5-b]pyridin-5-yl)phenyl)-2-hydroxy-2-methylpropanamide] | –
9 | – | 83.1 | – | Nc1ncccc1-c1nc2ccc(Oc3ccccc3)nc2n1-c1ccc(C2(N)CCC2)cc1 [Cmpd 22, 3-(3-(4-(1-aminocyclobutyl)phenyl)-5-phenoxy-3H-imidazo[4,5-b]pyridin-2-yl)pyridin-2-amine] | –
10 | 29 | 7 | 3.09 | Nc1ncccc1-c1nc2ccc(-c3cccc(NC(=O)C4CC4)c3)nc2n1-c1ccc(C2(N)CCC2)cc1 [Cmpd 3, N-(3-(3-(4-(1-aminocyclobutyl)phenyl)-2-(2-aminopyridin-3-yl)-3H-imidazo[4,5-b]pyridin-5-yl)phenyl)cyclopropane-carboxamide] | 444
11 | 235 | – | – | Nc1ncccc1-c1nc2ccc(N3CCOCC3)nc2n1-c1ccc(C2(N)CCC2)cc1 [Cmpd 1, 3-(3-(4-(1-aminocyclobutyl)phenyl)-5-morpholino-3H-imidazo[4,5-b]pyridin-2-yl)pyridin-2-amine] | –
12 | 8 | – | – | C[C@@H](O)CNC(=O)c1cccc(-c2ccc3nc(-c4cccnc4N)n(-c4ccc(C5(N)CCC5)cc4)c3n2)c1 [Cmpd 8, (R)-3-(3-(4-(1-aminocyclobutyl)phenyl)-2-(2-aminopyridin-3-yl)-3H-imidazo[4,5-b]pyridin-5-yl)-N-(2-hydroxypropyl)benzamide] | 1350
13 | – | 3.1 | 4.36 | C[C@@H]1CN(c2cccc(-c3ccc4nc(-c5cccnc5N)n(-c5ccc(C6(N)CCC6)cc5)c4n3)c2)C[C@H](C)O1 [Cmpd 17, 3-(3-(4-(1-aminocyclobutyl)phenyl)-5-(3-((2S,6R)-2,6-dimethylmorpholino)phenyl)-3H-imidazo[4,5-b]pyridin-2-yl)pyridin-2-amine] | –
14 | – | 0.7 | 4.46 | CC(=O)OC(C)(C)C(=O)Nc1cccc(-c2ccc3nc(-c4cccnc4N)n(-c4ccc(C5(N)CCC5)cc4)c3n2)c1 [Cmpd 5, 1-((3-(3-(4-(1-aminocyclobutyl)phenyl)-2-(2-aminopyridin-3-yl)-3H-imidazo[4,5-b]pyridin-5-yl)phenyl)amino)-2-methyl-1-oxopropan-2-yl acetate] | –
15 | – | 1.7 | 3.42 | CC(C)(C)C(=O)N1CCN(c2cccc(-c3ccc4nc(-c5cccnc5N)n(-c5ccc(C6(N)CCC6)cc5)c4n3)c2)CC1 [Cmpd 16, 1-(4-(3-(3-(4-(1-aminocyclobutyl)phenyl)-2-(2-aminopyridin-3-yl)-3H-imidazo[4,5-b]pyridin-5-yl)phenyl)piperazin-1-yl)-2,2-dimethylpropan-1-one] | –
16 | 4 | 1.1 | – | CC(C)C(=O)N1CCN(c2cccc(-c3ccc4nc(-c5cccnc5N)n(-c5ccc(C6(N)CCC6)cc5)c4n3)c2)CC1 [Cmpd 15, 1-(4-(3-(3-(4-(1-aminocyclobutyl)phenyl)-2-(2-aminopyridin-3-yl)-3H-imidazo[4,5-b]pyridin-5-yl)phenyl)piperazin-1-yl)-2-methylpropan-1-one] | –
17 | 3 | 0.2 | 4.15 | CCN(CC)C(=O)C1CCN(c2cccc(-c3ccc4nc(-c5cccnc5N)n(-c5ccc(C6(N)CCC6)cc5)c4n3)c2)CC1 [Cmpd 10, 1-(3-(3-(4-(1-aminocyclobutyl)phenyl)-2-(2-aminopyridin-3-yl)-3H-imidazo[4,5-b]pyridin-5-yl)phenyl)-N,N-diethylpiperidine-4-carboxamide] | –
18 | 12 | – | – | C[C@H](O)CNC(=O)c1cccc(-c2ccc3nc(-c4cccnc4N)n(-c4ccc(C5(N)CCC5)cc4)c3n2)c1 [Cmpd 7, (S)-3-(3-(4-(1-aminocyclobutyl)phenyl)-2-(2-aminopyridin-3-yl)-3H-imidazo[4,5-b]pyridin-5-yl)-N-(2-hydroxypropyl)benzamide] | 836
19 | 1.7 | 0.2 | 3.36 | Nc1ncccc1-c1nc2ccc(-c3cccc(N4CCC(C(=O)N5CCOCC5)CC4)c3)nc2n1-c1ccc(C2(N)CCC2)cc1 [Cmpd 11, (1-(3-(3-(4-(1-aminocyclobutyl)phenyl)-2-(2-aminopyridin-3-yl)-3H-imidazo[4,5-b]pyridin-5-yl)phenyl)piperidin-4-yl)(morpholino)methanone] | –
